Assay results taken from US11332459B2 (TEIJIN PHARMA LIMITED, priority 2017, dated 2022).
Counter-ions that a name gives are not always drawn.

Target: T1, human TRPC6 (Homo sapiens, UniProt Q9Y210)
T1 construct: expressed in transfected cells
T1 sequence (Q9Y210 1-931): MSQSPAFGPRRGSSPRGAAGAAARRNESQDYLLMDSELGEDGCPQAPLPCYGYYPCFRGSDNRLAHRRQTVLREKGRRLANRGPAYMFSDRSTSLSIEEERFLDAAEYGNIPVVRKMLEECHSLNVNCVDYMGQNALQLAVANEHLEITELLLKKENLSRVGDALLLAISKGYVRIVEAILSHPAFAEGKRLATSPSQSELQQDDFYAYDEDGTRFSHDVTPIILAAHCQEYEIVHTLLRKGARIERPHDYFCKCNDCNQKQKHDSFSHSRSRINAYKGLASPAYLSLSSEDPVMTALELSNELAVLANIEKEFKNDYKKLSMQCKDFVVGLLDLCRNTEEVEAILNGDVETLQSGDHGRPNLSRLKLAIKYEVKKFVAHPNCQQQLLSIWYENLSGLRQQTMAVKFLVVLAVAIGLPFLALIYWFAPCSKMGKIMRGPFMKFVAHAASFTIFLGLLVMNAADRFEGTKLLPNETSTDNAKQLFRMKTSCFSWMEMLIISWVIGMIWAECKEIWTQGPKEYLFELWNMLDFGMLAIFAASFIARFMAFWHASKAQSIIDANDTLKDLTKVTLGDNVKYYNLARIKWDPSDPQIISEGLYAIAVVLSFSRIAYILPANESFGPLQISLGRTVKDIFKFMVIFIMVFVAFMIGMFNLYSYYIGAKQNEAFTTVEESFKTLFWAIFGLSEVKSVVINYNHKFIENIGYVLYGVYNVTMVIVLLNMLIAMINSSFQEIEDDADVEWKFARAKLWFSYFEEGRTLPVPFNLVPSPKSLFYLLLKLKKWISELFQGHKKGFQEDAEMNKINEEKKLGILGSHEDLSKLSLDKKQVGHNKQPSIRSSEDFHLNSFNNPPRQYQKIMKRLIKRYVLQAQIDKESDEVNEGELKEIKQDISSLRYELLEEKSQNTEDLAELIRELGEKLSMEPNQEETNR
Test: TRPC6 calcium flux assay (FLIPR, OAG-stimulated calcium influx)
Format: cell-based
Conditions: HEK293 cells stably transfected with human TRPC6, read-out: hTRPC6 Potency
Procedure: Biological Example 1 TRPC6 Calcium Flux Assay
Potency of TRPC6 (Transient receptor potential channel family C6) inhibitors were measured by their inhibition of Calcium influx trigged by […] (1-Oleoyl-2-acetyl-sn-glycerol, Millipore Sigma, O6754) stimulation on HEK293 cells stablely transfected with human TRPC6 using a FLIPR tetra system. Cells were grown in a humidified environment at 37° C. under 5% CO2 using the growth medium with the following selective reagents (Dulbecco's Modified Eagle's Medium (DMEM) high glucose, 10% Fetal Bovine Serum, 1×PSGlu (penicillin-streptomycin glutamine), 1×NEAA (Non-essential amino acid), 1× Na Pyruvate and 200 ug/ml Hygromycin). For general passage, cells were grown to 70-90% confluency; the media was removed, and the cells were gently washed 2 times with calcium and magnesium free PBS (phosphate-buffered saline). Trypsin (3 mL) was applied for 5 minutes at 37° C. The cells were dislodged by rapping flask against base of a hand and 7 mL of growth medium was added to deactivate trypsin and re-suspend cells. The usual splitting schedule was 1:5 every 2-3 days.
Cells were plated the day before the assay, plating cell density is 1.0-1.5×10^4/25 μl/well in poly-D-lysine (PDL) coated 384-well plates using either multichannel pipettes or multidrop. These cells were first incubated with fluorescence dye at room temperature for 90-120 minutes after they were grown on PDL-coated 384-well black plates overnight (Dye loading buffer 10 ml example: 9 mL assay buffer, 1 mL, 10×PBX signal enhancer, 10 μL Calcium indicator). The cells were incubated with a dose of compounds for 25 minutes before being stimulated with TRPC6 agonist OAG. The OAG solution was prepared by adding OAG into assay buffer (Ca ringer solution base: 10 mM HEPES (4-(2-hydroxyethyl)-1-piperazine-ethanesulfonic acid), 4 mM MgCl2, 120 mM NaCl, 5 mM KCl, pH=7.2 @25° C.)+0.1% BSA+2 mM CaCl2) to the concentration of 0.2 mM/2% DMSO, which achieves a final on cell concentration of 50 uM/0.5% DMSO. 12.5 uL OAG mixture was added and the activation of the TRPC6 channel was measured by the change of intracellular Calcium levels on FLIPR terra system.
Data was acquired by measuring the fluorescent peak signal subtracted from the background during the 180 second imaging frame. Each data point is further normalized to 100% of OAG triggered signal vs. buffer. Table 16 provides the IC50 for each compound, which data is obtained by plotting peak signal over the compound dose.

Structure (SMILES) | IC50 [nM]
N[C@@H]1CN(c2nc3cc(F)c(F)cc3n2[C@H]2CCN(C3CCOCC3)C2=O)CC[C@H]1F [Example 548, (S)-3-(2-((3R,4R)-3-amino-4-fluoropiperidin-1-yl)-5,6-difluoro-1H-benzo[d]imidazol-1-yl)-1-(tetrahydro-2H-pyran-4-yl)pyrrolidin-2-one] | 382
CN[C@H]1CCCN(c2nc3cc(C(F)(F)F)ccc3n2Cc2ccc(C#N)cn2)C1 [Example 140, 6-((2-((3S)-3-(methylamino)-1-piperidinyl)-5-(trifluoromethyl)-1H-benzimidazol-1-yl)methyl)-3-pyridinecarbonitrile] | 132
N[C@@H]1CN(c2nc3cc(F)c(F)cc3n2CC(=O)N2CC3(C2)CC(F)(F)C3)CC[C@H]1F [Example 430, 2-(2-((3R,4R)-3-amino-4-fluoropiperidin-1-yl)-5,6-difluoro-1H-benzo[d]imidazol-1-yl)-1-(6,6-difluoro-2-azaspiro[3.3]heptan-2-yl)ethanone] | 880
N#Cc1ccc(Cn2c(N3CCCC4(CCCN4)C3)nc3ccccc32)nc1 (racemic) [Example 128, 6-((2-((5R)-1,7-diazaspiro[4.5-]decan-7-yl)-1H-benzimidazol-1-yl)methyl)-3-pyridinecarbonitrile, 6-((2-((5S)-1,7-diazaspiro[4.5]decan-7-yl)-1H-benzimidazol-1-yl)methyl)-3-pyridinecarbonitrile] | 49.4
N#Cc1ccc(Cn2c(N3CCC[C@H](N)C3)nc3ccccc32)c(F)c1 [Example 315, (S)-4-((2-(3-aminopiperidin-1-yl)-1H-benzo[d]imidazol-1-yl)methyl)-3-fluorobenzonitrile hydrochloride] | > 50000
CC(c1ccccn1)N(C)C(=O)Cn1c(N2CC[C@@H](F)[C@H](N)C2)nc2cc(F)c(F)cc21 (stereo partly drawn) [Example 638, 2-(2-((3R,4R)-3-amino-4-fluoropiperidin-1-yl)-5,6-difluoro-1H-benzo[d]imidazol-1-yl)-N-methyi-N-((S)-1-(pyridin-2-yl)ethyl)acetamide] | 425
C[C@H](c1ccc(Cl)cc1Cl)n1c(N2CC[C@@H](F)[C@H](N)C2)nc2cc(F)c(F)cc21 [Example 322, (3R,4R)-1-(1-((1R)-1-(2,4-dichlorophenyl)ethyl)-5,6-difluoro-1H-benzimidazol-2-yl)-4-fluoro-3-piperidinamine] | 1450
N[C@@H]1CN(c2nc3ccc(Cl)cc3n2CC(=O)N2CCC2)CC[C@H]1F [Example 285, 2-(2-((3R,4R)-3-amino-4-fluoro-1-piperidinyl)-6-chloro-1H-benzimidazol-1-yl)-1-(1-azetidinyl)ethanone] | 185
N#Cc1ccc(Cn2c(N3CC[C@@H](F)[C@H](N)C3)nc3ccncc32)cc1 [Example 413, 4-((2-((3R,4R)-3-amino-4-fluoropiperidin-1-yl)-3H-imidazo[4,5-c]pyridin-3-yl)methyl)benzonitrile] | 221
CC(C#N)CN(C)C(=O)Cn1c(N2CC[C@@H](F)[C@H](N)C2)nc2cc(F)c(F)cc21 (mixture of isomers) [Example 621, 2-(2-((3R,4R)-3-amino-4-fluoropiperidin-1-yl)-5,6-difluoro-1H-benzo[d]imidazol-1-yl)-N-(2-cyanopropyl)-N-methylacetamide] | 75.3
CN(C)C(=O)C1CCCN(C(=O)Cn2c(N3CC[C@@H](F)[C@H](N)C3)nc3cc(F)c(F)cc32)C1 (stereo partly drawn) [Example 657, 1-(2-(2-((3R,4R)-3-amino-4-fluoropiperidin-1-yl)-5,6-difluoro-1H-benzo[d]imidazol-1-yl)acetyl)-N,N-dimethylpiperidine-3-carboxamide] | > 3750
N#Cc1ccc(Cn2c(N3CCC[C@H](N)C3)nc3cc(F)cc(F)c32)nc1 [Example 62, (S)-6-((2-(3-aminopiperidin-yl)-5,7-difluoro-1H-benzo[d]imidazol-1-yl)methyl)nicotinonitrile] | 60.3
N[C@@H]1CN(c2nc3cc(F)c(F)cc3n2Cc2nnc(C(F)F)s2)CC[C@H]1F [Example 560, (3R,4R)-1-(1-((5-(difluoromethyl)-1,3,4-thiadiazol-2-yl)methyl)-5,6-difluoro-1H-benzo[d]imidazol-2-yl)-4-fluoropiperidin-3-amine] | 18.7

Compounds with a lower IC50, results first:

IC50 [nM] | Structure (SMILES)
2.35 | N#Cc1ccc(Cn2c(N3CCC[C@H](N)C3)nc3cc(Cl)ccc32)cc1 [Example 422, (S)-4-((2-(3-aminopiperidin-1-yl)-5-chloro-1H-benzo[d]imidazol-1-yl)methyl)benzonitrile]
0.377 | N#Cc1ccc(Cn2c(N3CC[C@@H](F)[C@H](N)C3)nc3ccc(C(F)(F)F)cc32)nc1 [Example 14, 6-((2-((3R,4R)-3-amino-4-fluoropiperidin-1-yl)-6-(trifluoromethyl)-1H-benzo[d]imidazol-1-yl)methyl)nicotinonitrile]
3.2 | N#Cc1ccc(Cn2c(N3CCC[C@H](N)C3)nc3cc(Cl)ccc32)nc1 [Example 2, (S)-6-((2-(3-aminopiperidin-1-yl)-5-chloro-1H-benzo[d]imidazol-1-yl)methyl)nicotinonitrile]
17.2 | C[C@@H](c1ccc(C#N)cn1)n1c(N2CC[C@@H](F)[C@H](N)C2)nc2ccccc21 [Example 298, 6-((S)-1-(2-((3R,4R)-3-amino-4-fluoropiperidin-1-yl)-1H-benzo[d]imidazol-1-yl)ethyl)nicotinonitrile hydrochloride]
0.382 | Cc1cc2nc(N3CC[C@@H](F)[C@H](N)C3)n(Cc3ccc(C#N)cn3)c2cc1F [Example 114, 6-((2-((3R,4R)-3-amino-4-fluoro-1-piperidinyl)-6-fluoro-5-methyl-1H-benzimidazol-1-yl)methyl)-3-pyridinecarbonitrile]
0.658 | N#Cc1ccc(Cn2c(N3CC[C@@H](F)[C@H](N)C3)nc3cc(C(F)(F)F)c(F)cc32)nc1 [Example 21, 6-((2-((3R,4R)-3-amino-4-fluoropiperidin-1-yl)-6-fluoro-5-(trifluoromethyl)-1H-benzo[d]imidazol-1-yl)methyl)nicotinonitrile]
10.7 | N[C@@H]1CN(c2nc3cc(F)c(F)cc3n2C2CCN(c3ccc(Cl)cc3)C2=O)CC[C@H]1F (mixture of isomers) [Example 240, 3-(2-((3R,4R)-3-amino-4-fluoropiperidin-1-yl)-5,6-difluoro-1H-benzo[d]imidazol-1-yl)-1-(4-chlorophenyl)pyrrolidin-2-one]
6.98 | NC(=O)c1cnc(Cn2c(N3CC[C@@H](F)[C@H](N)C3)nc3cc(F)c(F)cc32)cn1 [Example 133, 5-((2-((3R,4R)-3-amino-4-fluoro-1-piperidinyl)-5,6-difluoro-1H-benzimidazol-1-yl)methyl)-2-pyrazinecarboxamide]
4.07 | N#Cc1ccc(Cn2c(N3CCC[C@H](N)C3)nc3ccccc32)c(Cl)c1 [Example 321, (S)-4-((2-(3-aminopiperidin-1-yl)-1H-benzo[d]imidazol-1-yl)methyl)-3-chlorobenzonitrile hydrochloride]
1.67 | COc1ccc2nc(N3CCC[C@H](N)C3)n(Cc3ccc(C#N)cc3)c2n1 [Example 404, (S)-4-((2-(3-aminopiperidin-1-yl)-5-methoxy-3H-imidazo[4,5-b]pyridin-3-yl)methyl)benzonitrile hydrochloride]
